{"source": "paper doi:10.1101/2025.07.30.663779v2", "about": "(biorxiv, 2025)", "key": {"αCD40-mSAs": {"biological_target": "αCD40-mSAs", "experiment": "fluorescence polarization titration", "type": "binding", "conditions": "PBS; 20 nM biotin-FITC (Millipore-Sigma cat. 53608); labelled compound"}, "recombinant streptavidin": {"biological_target": "recombinant streptavidin (Streptomyces avidinii, UniProt P22629)", "sequence (P22629 25-183)": "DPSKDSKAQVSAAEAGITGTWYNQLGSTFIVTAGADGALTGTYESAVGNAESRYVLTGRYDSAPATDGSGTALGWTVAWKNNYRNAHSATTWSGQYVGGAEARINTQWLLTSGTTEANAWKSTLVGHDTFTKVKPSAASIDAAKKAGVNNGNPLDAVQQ", "experiment": "fluorescence polarization titration", "type": "binding", "conditions": "PBS; 20 nM biotin-FITC (Millipore-Sigma cat. 53608); labelled compound"}}, "data": [{"substance": "biotin-FITC", "values": [{"measurement": "Kd", "setting": "αCD40-mSAs", "value": 0.0692, "unit": "µM"}, {"measurement": "Kd", "setting": "recombinant streptavidin", "value": 0.0206, "unit": "µM"}]}]}
